By viability, T/C is commonly meant the ratio of treated to control. The IC50 is the point on the concentration scale where inhibition reaches its midpoint. What is called pIC50 is the negative decadic logarithm of the IC50, by convention in mol/L.

Molecules are shown by their SMILES. pIC50: −log10 of the molar value. “And” between values parts separate entries of the source, which are not always exact repeats. Equal values may be shown once.

The test system of the assay is NCI-H1876 tumor spheroid viability. Kind of assay: Anticancer human tumor NCI-H1876 cell line growth inhibition.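 As to all read-outs here: spheroids exposed to compounds for seven days before the viability read.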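 As to viability, T/C: percent of DMSO vehicle control viability so 100% = vehicle.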 Conditions: spheroids with HUVEC and MSC; for viability, T/C: stronger effect = lower value; for IC50: compound alone. From the text:
Multicellular complex tumor spheroid response to DNA repair inhibitors in combination with DNA-damaging drugs
This study explores the anticancer activities of DNA-damaging drugs and inhibitors of DNA damage repair, both as single agents and in combinations. Complex tumor spheroids comprised of malignant cells, endothelial cells and mesenchymal stem cells served as an in vitro model for human solid tumors. This model system incorporates physiologically relevant features and patient-derived or established malignant cell lines with clinically relevant genetic alterations from many tumor types. Twenty-six patient-derived or established malignant cell lines were evaluated representing sarcoma, melanoma, small cell lung cancer (SCLC), non-small cell lung cancer (NSCLC), as well as bladder, ovarian and pancreatic cancers. The concentration ranges selected for each drug and investigational agent were based upon clinically achievable concentrations if the clinical Cmax of the agent was known.
Compounds. The drugs and compounds olaparib (NSC753686), talazoparib (NSC767125), berzosertib (NSC777718), elimusertib (NSC800525), nedisertib (NSC802822), VX-984 (NSC792969), AZD-1390 (NSC803789), temozolomide (NSC362856), topotecan (NSC609699), trabectedin (NSC813783), staurosporine (NSC755774), and gemcitabine (NSC613327) were obtained from the National Cancer Institute (NCI) Developmental Therapeutics Program Chemical Repository. The FDA-approved anticancer drug set is available from the Developmental Therapeutics Program at https://dtp.cancer.gov/organization/dscb/obtaining/available_plates.htm. […] The stock solutions were prepared in dimethyl sulfoxide (DMSO, Sigma-Aldrich, St. Louis, MO, cat. D2650) at 400-fold the tested concentration and stored at -70 degrees C. Prior to their use, the stock solutions were diluted in fresh medium and the final DMSO concentration in the assay was 0.25% (v/v). All drugs and investigational agents were tested over a range starting from a high concentration at or near the clinical Cmax and decreasing in half-log increments. If the clinical Cmax for an agent had not been determined, the highest concentration tested was 10 microM.
Cell Lines. The patient-derived cancer cell (PDC) lines: 156681-154-R-J1-PDC, 283228-195-R-J1-PDC, 287954-098-R-J1-PDC, 292921-168-R-J2-PDC, 349418-098-R-PDC, 425362-245-T-J1-PDC, 556581-035-R-J1-PDC, and BL0293-F563-PDC were received from the NCI Patient-Derived Models Repository (PDMR, https://pdmr.cancer.gov). The established cell lines HS-SY-2 (RRID:CVCL_8719), MPNST, and SYO-1 (RRID:CVCL_7146) were obtained from the Sloan Kettering Institute. The alveolar soft parts sarcoma cell line ASPS-1 (RRID:CVCL_S738) was established at the NCI and grown from internal seed stocks. The following established cell lines were purchased from the American Type Culture Collection (ATCC, Manassas, VA): G-401 (ATCC, cat. CRL-1441, RRID:CVCL_0270), SW982 (ATCC, cat. HTB-93, RRID:CVCL_1734), VA-ES-BJ (ATCC, cat. CRL-2138, RRID:CVCL_1785), NCI-H719 (ATCC, cat. CRL-5837, RRID:CVCL_1582), NCI-H196 (ATCC, cat. CRL-5823, RRID:CVCL_1509), NCI-H841 (ATCC, cat. CRL-5845, RRID:CVCL_1595), NCI-H1618 (ATCC, cat. CRL-5879, RRID:CVCL_1480), NCI-H1876 (ATCC, cat. CRL-5902, RRID:CVCL_1503), DMS 114 (ATCC, cat. CRL-2066; RRID:CVCL_1174), NCI-H211 (ATCC, cat. CRL-5824; RRID:CVCL_1529), and SW 1271 (ATCC, cat. CRL-2177, RRID:CVCL_1716). The small cell lung cancer cell line COR-L88 was purchased from Sigma-Aldrich (cat. 92031917-1VL, RRID:CVCL_1141). The non-small cell lung cancer cell lines NCI-H226 (RRID:CVCL_1544) and NCI-H322M (RRID:CVCL_1557) were established at the NCI and grown from internal seed stocks. Pooled donor human umbilical vein endothelial cells (HUVEC, Lonza, cat. CC-2519) and human mesenchymal stem cells (hMSC, Lonza, cat. PT-2501) were purchased from Lonza (Walkersville, MD).
Cell Culture. All cells were maintained in an incubator at 37 degrees C and 5% CO2 with 95% humidity. […]

On to `CC[C@@]1(O)C(=O)OCc2c1cc1n(c2=O)Cc2cc3c(CN(C)C)c(O)ccc3nc2-1`, for which the viability, T/C by setting is: (compound 0.003 µM) 84.5% [middle of 10 runs]; (compound 0.03 µM) 12.1% [middle of 10 runs]; (compound 0.0949 µM) 8% [middle of 10 runs]; (compound 0.3 µM) 3.52% [middle of 10 runs]. For the same compound, the IC50 is 7.08 nM [middle of 5 runs] (run of 11/07/2019) and 5.61 nM [middle of 5 runs] (run of 12/16/2019).
For `CC(C)n1c(=O)n(C)c2cnc3cc(F)c(-c4ccc(OCCCN5CCCCC5)nc4)cc3c21`, the viability, T/C reads like this: (compound 0.0316 µM) 100% and 85.6% and 104%; (compound 0.1 µM) 98.1% and 49.6% and 104%; (compound 0.316 µM) 103% and 53.3% and 100%; (compound 1 µM) 103% and 47.4% and 104%; (compound 3.16 µM) 107% and 28.5% and 105%; (compound 10 µM) 102% and 11.4% and 93.3%.
On to `COc1ccc([C@@H](O)c2cc(-c3ncnc4cc(N5CCOCC5)ccc34)c(F)cc2Cl)nn1` + Cn1nnc2c(C(N)=O)ncn2c1=O, for which the pIC50 (curve of first compound, second compound 1 µM) is 5.97; the pIC50 (curve of first compound, second compound 3.16 µM) was 5.92; the pIC50 (curve of first compound, second compound 10 µM) is 6.00; the pIC50 (curve of first compound, second compound 31.6 µM) is 6.01; the pIC50 (curve of first compound, second compound 100 µM) was 6.47. The viability, T/C runs as follows: (second compound 1 µM, first compound 0.0316 µM) 93.8%; (second compound 1 µM, first compound 0.1 µM) 86.7%; (second compound 1 µM, first compound 0.316 µM) 74.3%; (second compound 1 µM, first compound 1 µM) 49%; (second compound 1 µM, first compound 3.16 µM) 29%; (second compound 1 µM, first compound 10 µM) 4.64%. Further, the viability, T/C is 97.5% (second compound 3.16 µM, first compound 0.0316 µM); 85.2% (second compound 3.16 µM, first compound 0.1 µM); 80% (second compound 3.16 µM, first compound 0.316 µM); 53.7% (second compound 3.16 µM, first compound 1 µM); 26.5% (second compound 3.16 µM, first compound 3.16 µM); 4.48% (second compound 3.16 µM, first compound 10 µM). The viability, T/C by setting is: (second compound 10 µM, first compound 0.0316 µM) 94.4%; (second compound 10 µM, first compound 0.1 µM) 86.3%; (second compound 10 µM, first compound 0.316 µM) 72%; (second compound 10 µM, first compound 1 µM) 51%; (second compound 10 µM, first compound 3.16 µM) 23.5%; (second compound 10 µM, first compound 10 µM) 3.37%. Further, the viability, T/C reads like this: (second compound 31.6 µM, first compound 0.0316 µM) 90.8%; (second compound 31.6 µM, first compound 0.1 µM) 82.2%; (second compound 31.6 µM, first compound 0.316 µM) 73.1%; (second compound 31.6 µM, first compound 1 µM) 47.7%; (second compound 31.6 µM, first compound 3.16 µM) 25.1%; (second compound 31.6 µM, first compound 10 µM) 4.04%. For the same compound, the viability, T/C (second compound 100 µM, first compound 0.0316 µM) was 48.4%; the viability, T/C (second compound 100 µM, first compound 0.1 µM) is 65.8%; the viability, T/C (second compound 100 µM, first compound 0.316 µM) was 48.5%; the viability, T/C (second compound 100 µM, first compound 1 µM) was 36.1%; the viability, T/C (second compound 100 µM, first compound 3.16 µM) is 17.8%; the viability, T/C (second compound 100 µM, first compound 10 µM) is 2.3%.
Regarding `[2H]c1nc(C)nc([2H])c1-c1cc(NC[C@@H](C)c2cccc3c(C(=O)NC)ccnc23)ncn1`, the viability, T/C (compound 0.0316 µM) was 102% and 103% and 99.3%; the viability, T/C (compound 0.1 µM) is 107% and 55.1% and 102%; the viability, T/C (compound 0.316 µM) was 99.8% and 70.6% and 102%; the viability, T/C (compound 1 µM) was 102% and 101% and 99.3%; the viability, T/C (compound 3.16 µM) was 102% and 90.8% and 97.4%; the viability, T/C (compound 10 µM) was 96.6% and 71% and 95%. The pIC50 (curve of compound) was < 5.00.

The record behind these values is PubChem BioAssay AID1845207 (Molecular Pharmacology Branch, DTP, NCI, 2023).
